# According to US20240210412A1, “SULFONYL-TRIAZOLE COMPOUNDS USEFUL AS LIGANDS AND INHIBITORS OF PROSTAGLANDIN REDUCTASE 2” (University of Virginia Patent Foundation, priority 2021, published 2024):
# Legend:
# PTGR2 [1] = molecular target: T1, PTGR2 (Homo sapiens, UniProt Q8N8N7); test: in vitro gel-based chemical proteomics competition, RJS-1027 probe; format: binding; settings: inhibitor 0.5 μM, RJS-1027 1 μM, HEK293T soluble proteome
# T1 construct: host or cells: HEK293T
# Experimental: Cell pellets were lysed in PBS buffer (EDTA free) by sonicating 3 times for 1 second×20% amplitude. The lysate was fractionated by centrifuging at 100,000×g for 45 min at 4° C., separating membrane and soluble fractions. Only the soluble fraction was used for in vitro and in situ experiments. Protein concentrations were measured using the Bio-Rad DC protein assay, and fractions were diluted to a concentration of 2 mg/mL in PBS. For live cell treated samples, 50 μL aliquots of proteome were used for gel experiments. For in vitro experiments, 48 μL aliquots of cell lysate were used for each inhibitor before adding 1 μL of 50× inhibitor stock (1 μM final) and incubated for 30 minutes at 37° C., then 1 μL of 50×probe stock (1 μM final) was added and the lysate incubated for 30 minutes at 37° C. […] 30 μL of each sample were separated by SDSPAGE and analyzed by in-gel fluorescence scanning for the rhodamine azide tag. […]
# FIG. 9A is an image of an in vitro gel-based chemical proteomics assay using RJS-1027 (1 μM) as a probe to measure competition of binding PTGR2 with an inhibitor (0.5 μM). […] Quantitative comparison of inhibitor competition with probe labeling normalized to the negative control HHS-0101 is shown in FIG. 9B. […] Quantitative comparison of RJG-2036 competition with probe labeling normalized to the negative control HHS-0101 is shown in FIG. 9D.
# PTGR2 [2] = molecular target: T1, PTGR2; test: gel-based ABPP, HHS-475 probe, HEK293T cells expressing recombinant PTGR2; format: cell-based; settings: 25 μM-0.1 μM, 2 h; HHS-475 25 μM 2 h; compared with AMC-0702, HHS-0701
# Experimental: HEK293T cells at 30-50% confluency were transfected with 2.6 μg of FAH or PTGR2 plasmid DNA in a serum-free media/polyethyleneimine solution for 48 hrs. The cells were washed once with warm, sterile DPBS (1×, 5 mL), and then 10 mL of serum-free media (supplemented with 1% L-glutamine) containing either DMSO or SuTEx fragment (in DMSO) was added. After 2 hrs, the cells were treated with 100 μM of SuTEx alkyne probe (HHS-475, 10 μL of 1000× DMSO stock) and incubated for an additional 2 hrs. The media was aspirated and cells washed with cold PBS (5 mL) and harvested. Cells were spun at 500×g for 5 min at 4° C. and supernatant was removed. Pellets were resuspended in 1 mL of cold DPB S and spun at 1,400×g for 3 min at 4° C. and supernatant was removed. The cells were lysed in PBS by sonication and fractionated (100,000×g, 45 min, 4° C.). The soluble fraction was diluted to 1 mg/mL in PBS and 49 μL was used for analysis. […] The samples were analyzed by SDS-PAGE (30 μL) and imaged by in-gel fluorescence scanning.
# Confirmatory studies were also performed on prostaglandin reductase 2 (PTGR2) because of its role in the reduction of the bioactive lipid, 15-keto-PGE2^[17]. […] The remaining fluorescent signal detected on PTGR2 Y100F mutant protein is likely due to probe labeling of additional tyrosine sites identified on wild-type protein.
# To assess the PTGR2 inhibitory activity of AMC-0702 and AMC-0703, HEK293T cells expressing PTGR2 were pretreated with vehicle, HHS-0101 (25 μM), HHS-0701 (25 μM), AMC-0702 (25 μM-0.1 μM), or AMC-0703 (25 μM-0.1 μM) for 2 hours followed by HHS-475 probe labelling in live cells (25 μM, 2 hours). Cells were lysed and probe-modified PTGR2 in proteomes detected by copper-catalyzed azide-alkyne cycloaddition conjugation of rhodamine-azide, SDS-PAGE, and in-gel fluorescence scanning. Inhibitory activity of compounds is determined by reductions in fluorescent band intensity from HHS-475 probe labeling of proteins detected in proteomes. […]
# [3] = molecular target: T2, recombinant prostaglandin reductase 2 (PTGR2) (Homo sapiens, UniProt Q8N8N7); test: in situ gel-based chemical proteomics competition, RJS-1027 probe; format: cell-based; settings: RJS-1027 1 μM, normalized to PTGR2 WT, two biological replicates, read-out: 50% inhibitory concentration (IC50), competition with probe labeling
# T2 construct: host or cells: HEK293T
# Experimental: HEK293T cells were grown to 30-40% confluency and transiently transfected with wild type PTGR2 or Y100F PTGR2 mutant plasmid or DMSO by dissolving 20 μL of PEI (1 mg/mL) and 2.6 μg of plasmid in 0.6 mL of serum-free DMEM media. Transfected HEK293T cells were incubated at 37° C. with 5% CO2 and were harvested for in vitro experiments. For in situ experiments, cells were treated with either DMSO or inhibitors at a final concentration of 1 μM, or the indicated concentration, of inhibitors from a 1,000× stock in serum-free media. Cells were subsequently incubated at 37° C. with 5% CO2 for 2 hours, followed by treatment with DMSO or probe at a final concentration of 1 μM from a 1,000× stock in serum-free media. Cells were harvested and pelleted at 400×g for 5 min and the supernatant was decanted. […]
# Cell pellets were lysed in PBS buffer (EDTA free) by sonicating 3 times for 1 second×20% amplitude. […] Protein concentrations were measured using the Bio-Rad DC protein assay, and fractions were diluted to a concentration of 2 mg/mL in PBS. […] 30 μL of each sample were separated by SDSPAGE and analyzed by in-gel fluorescence scanning for the rhodamine azide tag. […]
# Anti-flag and GAPDH western blots are shown below the long gel and were performed separately. Quantitation of RJG-2036 competition with probe labeling normalized to the PTGR2 WT with RJS-1027 as a probe is shown in FIG. 10C.
# T1 sequence (Q8N8N7 whole entry): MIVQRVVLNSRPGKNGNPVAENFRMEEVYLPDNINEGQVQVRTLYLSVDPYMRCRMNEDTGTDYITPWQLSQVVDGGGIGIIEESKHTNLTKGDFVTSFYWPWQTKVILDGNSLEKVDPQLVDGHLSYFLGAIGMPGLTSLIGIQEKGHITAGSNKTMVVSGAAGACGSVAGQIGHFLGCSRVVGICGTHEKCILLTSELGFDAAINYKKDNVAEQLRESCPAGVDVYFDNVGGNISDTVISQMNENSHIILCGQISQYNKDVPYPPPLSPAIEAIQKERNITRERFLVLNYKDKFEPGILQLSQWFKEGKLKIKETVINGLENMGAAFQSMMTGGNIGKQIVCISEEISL
# T2 sequence (Q8N8N7 whole entry): as above
SMILES,competition of probe binding to PTGR2 (PTGR2 [1]),potency against PTGR2 (reduction of HHS-475 probe labeling) (PTGR2 [2]),IC50 [3] [nM]
"COc1ccccc1N1CCN(C(=O)c2ccc(S(=O)(=O)n3cnc(-c4cccnc4)n3)cc2)CC1 [RJG-1189, (4-(2-methoxyphenyl)piperazin-1-yl)(4-((3-(pyridin-3-yl)-1H-1,2,4-triazol-1-yl)sulfonyl)phenyl)methanone]",potent inhibitors,,
"COc1ccccc1N1CCN(C(=O)c2ccc(S(=O)(=O)n3cncn3)cc2)CC1 [AMC-0703, (4-((1H-1,2,4-triazol-1-yl)sulfonyl)phenyl)(4-(2-methoxyphenyl)piperazin-1-yl)methanone]",potent inhibitors,highest potency against PTGR2,
"COc1ccccc1N1CCN(C(=O)c2cccc(S(=O)(=O)n3cncn3)c2)CC1 [RJG-2036, (3-((1H-1,2,4-triazol-1-yl)sulfonyl)phenyl)(4-(2-methoxyphenyl)piperazin-1-yl)methanone]",,,89.5
